Experimental data taken from patent US20200306295A1, “METHOD AND DEVICE FOR ANNIHILATION OF Staphylococcus aureus” (priority 2017, published 2020).

System: 200 kinds of cytokines
Experiment: Fold change of 200 cytokines in homogenized wound tissue
Type: in vivo, Balb/c mice
Conditions: mean; wound tissue
Source text: To quantify the physiological condition of the wound tissues, we measured the concentrations of 200 kinds of cytokines (Table. 1) from the supernatant of homogenized tissue solution. Cytokines are small secreted proteins released by cells and have specific effect on the interactions and communications between cells (25).
To initiate the formation of a skin wound, five groups (n=5) of eight-week old female Balb/c mice (obtained from Harlan Laboratories, Indianapolis, Ind., USA) were disinfected with ethanol (70%) and shaved on the middle of the back (approximately a one-inch by one-inch square region around the injection site) one day prior to infection as described from a reported procedure (3). To prepare the bacterial inoculum, an aliquot of overnight culture of MRSA USA300 was transferred to fresh Tryptic soy broth and shaken at 37° C. until an OD600 value of ˜1.0 was achieved. The cells were centrifuged, washed once with PBS, re-centrifuged, and then re-suspended in PBS. Mice subsequently received an intradermal injection (40 μL) containing 2.40×10^9 CFU/mL MRSA USA300.
One group of mice was left untreated (negative control). Each group of mice receiving a particular treatment regimen was housed separately in a ventilated cage with appropriate bedding, food, and water. […] Mice were treated twice daily (once every 12 hours) for three days, before they were humanely euthanized via CO2 asphyxiation 12 hours after the last dose was administered. The region around the skin wound was lightly swabbed with ethanol (70%) and excised. The tissue was subsequently homogenized in PBS. The homogenized tissue was then serially diluted in PBS before plating onto mannitol salt agar plates. Plates were incubated for at least 19 hours at 37° C. before viable MRSA CFU/mL were counted for each group. Outlier was removed based upon the Dixon Q Test.

For `OO` [H2O2, hydrogen peroxide], the “fold change of IL-1ra” value was 0.1670, the “fold change of IL-2” value was −0.1860 and the “fold change of IL-2 Ra” value was 0.2015. The “fold change of IL-3” value was −0.1781, the “fold change of IL-3 Rb” value was −0.0953 and the “fold change of IL-4” value was −0.2011. For the same molecule, the “fold change of IL-5” value was −0.3106, the “fold change of IL-6” value was −0.2775 and the “fold change of IL-7” value was −0.0083. The “fold change of IL-7 Ra” value was −0.4620, the “fold change of IL-9” value was 0.0482 and the “fold change of IL-10” value was −0.1759. The “fold change of IL-12p40” value was 0.0200, the “fold change of IL-12p70” value was −0.1362 and the “fold change of IL-13” value was −0.4855. The “fold change of IL-15” value was −0.1351, the “fold change of IL-17” value was 1.4006 and the “fold change of IL-17B” value was −0.2485. For the same molecule, the “fold change of IL-17B R” value was 0.0438, the “fold change of IL-17E” value was −0.3214 and the “fold change of IL-17F” value was 0.6993. The “fold change of IL-20” value was −0.1274, the “fold change of IL-21” value was −0.5851 and the “fold change of IL-22” value was −0.5330. The “fold change of IL-23” value was 0.1392, the “fold change of IL-28” value was 0.2046 and the “fold change of IL-33” value was −0.6370. For the same molecule, the “fold change of JAM-A” value was −0.2998, the “fold change of KC” value was −0.0602 and the “fold change of Kremen-1” value was −0.4532. The “fold change of L-Selectin” value was −0.1755, the “fold change of LIX” value was −0.2304 and the “fold change of LOX-1” value was 0.0229. The “fold change of Leptin” value was −0.1401, the “fold change of Leptin R” value was −0.1563 and the “fold change of Limitin” value was 0.5441. For the same molecule, the “fold change of Lipocalin-2” value was −0.0669, the “fold change of Lungkine” value was −0.0954 and the “fold change of Lymphotactin” value was 0.0191. The “fold change of MCP-1” value was 0.9431, the “fold change of MCP-5” value was −0.8808 and the “fold change of MCSF” value was −0.0002. For the same molecule, the “fold change of MDC” value was 0.5488, the “fold change of MFG-E8” value was −0.1414 and the “fold change of MIG” value was −0.1127. The “fold change of MIP-1a” value was −0.3107, the “fold change of MIP-1b” value was −0.4967 and the “fold change of MIP-1g” value was −0.0241. The “fold change of MIP-2” value was −0.0277, the “fold change of MIP-3a” value was 0.3267 and the “fold change of MIP-3b” value was −0.1993. For the same molecule, the “fold change of MMP-2” value was −0.5768, the “fold change of MMP-3” value was −0.0983 and the “fold change of MMP-10” value was −0.1476. For the same molecule, the “fold change of MadCAM-1” value was −0.3032, the “fold change of Marapsin” value was −0.0476 and the “fold change of Neprilysin” value was −0.2555. The “fold change of OPG” value was −0.2142, the “fold change of OPN” value was −0.2307 and the “fold change of P-selectin” value was −0.4006. For the same molecule, the “fold change of PDGF-AA” value was −0.4666, the “fold change of PF4” value was −0.7429 and the “fold change of Pentraxin 3” value was −0.7179. The “fold change of Persephin” value was −0.3386, the “fold change of Pro-MMP-9” value was 0.0213 and the “fold change of Prolactin” value was 0.2852. The “fold change of RAGE” value was −0.0350, the “fold change of RANTES” value was −0.4249 and the “fold change of Resistin” value was −0.3623. The “fold change of SCF” value was 0.1915, the “fold change of SDF-1a” value was −0.0807 and the “fold change of SLAM” value was −0.0883. The “fold change of Shh-N” value was −0.1527, the “fold change of TACI” value was −0.2636 and the “fold change of TARC” value was −0.4322. The “fold change of TCA-3” value was −0.2756, the “fold change of TCK-1” value was −0.4843 and the “fold change of TECK” value was 0.1734. The “fold change of TGFb1” value was −0.1570, the “fold change of TNF RI” value was −0.2939 and the “fold change of TNF RII” value was −0.1233. The “fold change of TNFα” value was 0.1039, the “fold change of TPO” value was −0.0215 and the “fold change of TRANCE” value was 0.0878. The “fold change of TREM-1” value was 0.0703, the “fold change of TROY” value was −0.0721 and the “fold change of TSLP” value was −0.1726. The “fold change of TWEAK” value was −0.1667, the “fold change of TWEAK R” value was −0.4445 and the “fold change of TremL1” value was −0.2695. The “fold change of VCAM-1” value was −0.1357, the “fold change of VEGF” value was −0.0295 and the “fold change of VEGF R1” value was −0.4184. The “fold change of VEGF R3” value was −0.0705, the “fold change of VEGF-B” value was −0.0693 and the “fold change of VEGF-D” value was −0.0146. For the same molecule, the “fold change of bFGF” value was −0.2542, the “fold change of gp130” value was 0.1048 and the “fold change of sFRP-3” value was −0.1892.
